Test system: autophagosomes and autophagolysosomes
Experiment: Cyt-ID and LysoTracker Red staining of autophagosomes, lysosomes and autophagolysosomes
Type: cell-based, human
Settings: for fusion between autophagosomes and lysosomes: Bafl 1 nM 18 h; for mean # of green dots/cell (autophagosomes) / mean # of yellow dots/cell (autophagolysosomes): A-T/control shRNA cells, bafilomycin treated
Procedure: Autophagasome, lysosome and autophagolysosomes staining. Cells (100,000/point) were cultured on fibronectin-coated glass coverslips. Cells were treated with autophagy inhibitor Bafl (1 nM) (Sigma-Aldrich) for 18 hr. Cells were then exposed to UV radiation and allowed to recover in the presence of inhibitors for 3 h. Cells were then washed (2×1 min) with PBS and co-stained with Cyt-ID® (Cyt-ID® Autophagy Detection Kit from Enzo Lifesciences; Farmingdale, NY) and Lyso Tracker® Red DND-99 (Invitrogen) for 30 min at 37° C. in a CO2 incubator following manufacturer's protocol. Stained cells were then washed (2×1 min) with PBS and fixed with 4% paraformaldehyde for 20 min at room temperature. After washing with PBS (3×10 min), cells were mounted on slides in anti-fade mounting medium with DAPI (Invitrogen). Images were taken using a 63× oil immersion objective with a Leica DMRA2 upright microscope run through SlideBook software (Intelligent Imaging Innovations).
Autophagic flux was also monitored using Cyto-ID® and LysoTrack Red dyes. A-T and ATM+ cells were treated with Bafl (1 nM for 18 h) and then exposed to UV (25 mJ/m2) as indicated. Three hours after recovery in the presence of inhibitors, cells were co-stained with Cyt-ID® and LysoTracker Red® dyes. Fluorescence images of Cyt-ID® and LysoTracker Red® stained cells were made (Color images not shown). Green (autophagosomes; from Cyt-TD®-stained panels), red (lysosomes; from LysoTracker Red-stained panels), and yellow (autophagolysosomes; from merged panels) dots in A-T and ATM+ cells were counted manually using the ImageJ plug-in Cell Counter. Mean number of dots/cell is shown in FIGS. 11A and 11B, respectively. In FIGS. 11A and 11B, the number of autophagosomes (green dots) is represented by stippled bars; the number of lysosomes (red dots) is presented by lined bar; and the number of autophagolysosomes (yellow dots) is represented by clear (white) bars.
Bafilomycin inhibits autophagy at a late stage (47). Whether 3-methyl adenine (3-MA), an autophagy inhibitor known to inhibit autophagy at early stage by inhibiting formation of autophagosomes (56), could block UV-induced autophagic flux was tested in A-T/LV-control shRNA cells. Using Cyto-ID® and LysoTrack Red dyes as described herein in FIGS. 9A, 9B, 11A and 11B, the same criteria were used to judge autophagic activity in immunofluorescence analysis as described for FIGS. 11A and 11B.
The effect of 3-MA on UV-induced autophagic flux was tested in A-T/LV-ISG15 shRNA cells. A-T/LV-ISG15 shRNA cells were either left untreated or treated with 3-MA (10 nM for 18 h), and cells were then exposed to UV (25 mJ/m2). Three hours after recovery in the presence of the inhibitor, cells were co-stained with Cyt-ID® and LysoTracker Red® dyes. Fluorescence images of Cyt-ID® and LysoTracker Red® stained cells were made.

CO/C1=C\C(C)=C\[C@@H](C)[C@@H](O)[C@@H](C)C/C(C)=C/C=C/[C@H](OC)[C@@H]([C@@H](C)[C@@H](O)[C@H](C)[C@@]2(O)C[C@@H](O)[C@H](C)[C@@H](C(C)C)O2)OC1=O [Bafilomycin A1]
fusion between autophagosomes and lysosomes (A-T cells): failed to do so | mean # of green dots/cell (autophagosomes) (with UV): 0.8 dots/cell | mean # of yellow dots/cell (autophagolysosomes) (with UV): 1.5 dots/cell | mean # of green dots/cell (autophagosomes) (without UV): 6 dots/cell | mean # of yellow dots/cell (autophagolysosomes) (without UV): 5.8 dots/cell | fusion between autophagosomes and lysosomes (ATM+ cells): blocked fusion
